Key:
B. subtilis 168 [1] = experiment: fitness (endpoint OD595 vs no drug) (fraction); higher = more growth
Method in brief: (§1)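 Cultures at OD595 0.01 were dispensed into 384-well plates in TSB, LB Lennox or CY and incubated at 37 °C. Every 30 min for 14 h, OD595 was read and corrected by the first reading. Fitness is the optical density at entry into stationary phase relative to the robust mean of no-drug control wells, capped at 1.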

S. aureus Newman [2] = experiment: as above
Method in brief: as §1

S. pneumoniae D39V [3] = experiment: as above
Method in brief: as §1

B. subtilis 168 [4] = experiment: Bliss interaction score (quartile over a dose matrix) (fitness difference); higher = more antagonism (negative = synergy)
Method in brief: (§2)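 Fitness is OD595 at stationary-phase entry relative to the plate's robust no-drug mean, capped at 1. Single-drug fitness was inferred from combinations. The Bliss score is observed minus product-expected fitness, summarised by quartiles over technical, biological and donor/recipient replicates.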

S. aureus DSM 20231 = experiment: as above
Method in brief: as §2

S. aureus Newman [5] = experiment: as above
Method in brief: as §2

S. pneumoniae D39V [6] = experiment: as above
Method in brief: as §2
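For Bliss interaction score (quartile over a dose matrix) in this document: first quartile when negative (synergy) and third quartile when positive (antagonism).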

CO/N=C(\C(=O)N[C@@H]1C(=O)N2C(C(=O)O)=C(COC(C)=O)CS[C@H]12)c1csc(N)n1 [Cefotaxime] + CN(C)c1cc(NC(=O)CNC(C)(C)C)c(O)c2c1C[C@H]1C[C@H]3[C@H](N(C)C)C(O)=C(C(N)=O)C(=O)[C@@]3(O)C(O)=C1C2=O [Tigecycline]
fitness, one replicate
Conditions | partner 0.039 µg/mL | partner 0.078 µg/mL | partner 0.125 µg/mL | partner 0.156 µg/mL | partner 0.25 µg/mL | partner 0.5 µg/mL
B. subtilis 168 [1], first compound 0.00775 µg/mL | 0.83 | 0.784 | – | 0.811 | – | –
B. subtilis 168 [1], first compound 0.0155 µg/mL | 0.696 | 0.677 | – | 0.621 | – | –
B. subtilis 168 [1], first compound 0.031 µg/mL | 0.476 | 0.528 | – | 0.589 | – | –
B. subtilis 168 [1], first compound 0.0625 µg/mL | – | – | 0.623 | – | 0.513 | 0.573
B. subtilis 168 [1], first compound 0.125 µg/mL | – | – | 0.457 | – | 0.4 | 0.406
B. subtilis 168 [1], first compound 0.25 µg/mL | – | – | 0.307 | – | 0.237 | 0.252
S. aureus Newman [2], first compound 0.039 µg/mL | 0.709 | 0.781 | – | 0.776 | – | –
S. aureus Newman [2], first compound 0.625 µg/mL | 0.0125 | 0.0197 | – | 0.0212 | – | –
S. aureus Newman [2], first compound 1.25 µg/mL | 0.0613 | 0.0298 | – | 0.023 | – | –
S. aureus Newman [2], first compound 2.5 µg/mL | 0.0425 | 0.0445 | – | 0.0375 | – | –

Conditions | fitness
B. subtilis 168 [1], first compound 0.5 µg/mL, partner 0.039 µg/mL | 0.231
B. subtilis 168 [1], first compound 0.5 µg/mL, partner 0.078 µg/mL | 0.198
B. subtilis 168 [1], first compound 0.5 µg/mL, partner 0.156 µg/mL | 0.234
B. subtilis 168 [1], first compound 1 µg/mL, partner 0.039 µg/mL | 0.0778
B. subtilis 168 [1], first compound 1 µg/mL, partner 0.078 µg/mL | 0.092
B. subtilis 168 [1], first compound 1 µg/mL, partner 0.156 µg/mL | 0.109
B. subtilis 168 [1], first compound 2 µg/mL, partner 0.039 µg/mL | 0.0602
B. subtilis 168 [1], first compound 2 µg/mL, partner 0.078 µg/mL | 0.0925
B. subtilis 168 [1], first compound 2 µg/mL, partner 0.156 µg/mL | 0.101
S. aureus Newman [2], first compound 0.078 µg/mL, partner 0.039 µg/mL | 0.706
S. aureus Newman [2], first compound 0.078 µg/mL, partner 0.078 µg/mL | 0.777
S. aureus Newman [2], first compound 0.078 µg/mL, partner 0.156 µg/mL | 0.767
S. aureus Newman [2], first compound 0.156 µg/mL, partner 0.039 µg/mL | 0.655
S. aureus Newman [2], first compound 0.156 µg/mL, partner 0.078 µg/mL | 0.701
S. aureus Newman [2], first compound 0.156 µg/mL, partner 0.156 µg/mL | 0.714
S. aureus Newman [2], first compound 0.312 µg/mL, partner 0.039 µg/mL | 0.427
S. aureus Newman [2], first compound 0.312 µg/mL, partner 0.078 µg/mL | 0.434
S. aureus Newman [2], first compound 0.312 µg/mL, partner 0.156 µg/mL | 0.422
S. pneumoniae D39V [3], first compound 0.0018 µg/mL, partner 0.325 µg/mL | 0.978
S. pneumoniae D39V [3], first compound 0.0018 µg/mL, partner 0.65 µg/mL | 0.936
S. pneumoniae D39V [3], first compound 0.0018 µg/mL, partner 1.3 µg/mL | 0.993
S. pneumoniae D39V [3], first compound 0.0018 µg/mL, partner 2.6 µg/mL | 0.92
S. pneumoniae D39V [3], first compound 0.0035 µg/mL, partner 0.325 µg/mL | 0.957
S. pneumoniae D39V [3], first compound 0.0035 µg/mL, partner 0.65 µg/mL | 0.903
S. pneumoniae D39V [3], first compound 0.0035 µg/mL, partner 1.3 µg/mL | 0.954
S. pneumoniae D39V [3], first compound 0.0035 µg/mL, partner 2.6 µg/mL | 0.88
S. pneumoniae D39V [3], first compound 0.007 µg/mL, partner 0.325 µg/mL | 0.918
S. pneumoniae D39V [3], first compound 0.007 µg/mL, partner 0.65 µg/mL | 0.849
S. pneumoniae D39V [3], first compound 0.007 µg/mL, partner 1.3 µg/mL | 0.896
S. pneumoniae D39V [3], first compound 0.007 µg/mL, partner 2.6 µg/mL | 0.774

Conditions | Bliss interaction score
B. subtilis 168 [4] | 0.0544
S. aureus DSM 20231 | 0.0485
S. aureus Newman [5] | -0.0426
S. pneumoniae D39V [6] | -0.0363

O=C(O)c1cn(C2CC2)c2cc(N3CCNCC3)c(F)cc2c1=O [Ciprofloxacin] + CN(C)c1cc(NC(=O)CNC(C)(C)C)c(O)c2c1C[C@H]1C[C@H]3[C@H](N(C)C)C(O)=C(C(N)=O)C(=O)[C@@]3(O)C(O)=C1C2=O [Tigecycline]
Conditions | fitness
B. subtilis 168 [1], first compound 0.0098 µg/mL, partner 0.039 µg/mL | 0.919
B. subtilis 168 [1], first compound 0.0098 µg/mL, partner 0.078 µg/mL | 0.889
B. subtilis 168 [1], first compound 0.0098 µg/mL, partner 0.156 µg/mL | 0.821
B. subtilis 168 [1], first compound 0.0195 µg/mL, partner 0.039 µg/mL | 0.758
B. subtilis 168 [1], first compound 0.0195 µg/mL, partner 0.078 µg/mL | 0.697
B. subtilis 168 [1], first compound 0.0195 µg/mL, partner 0.156 µg/mL | 0.713
S. aureus Newman [2], first compound 0.0375 µg/mL, partner 0.078 µg/mL | 0.735
S. aureus Newman [2], first compound 0.0375 µg/mL, partner 0.156 µg/mL | 0.735
S. aureus Newman [2], first compound 0.075 µg/mL, partner 0.039 µg/mL | 0.656
S. aureus Newman [2], first compound 0.075 µg/mL, partner 0.078 µg/mL | 0.698
S. aureus Newman [2], first compound 0.075 µg/mL, partner 0.156 µg/mL | 0.683
S. aureus Newman [2], first compound 0.15 µg/mL, partner 0.039 µg/mL | 0.0882
S. aureus Newman [2], first compound 0.15 µg/mL, partner 0.078 µg/mL | 0.045
S. aureus Newman [2], first compound 0.15 µg/mL, partner 0.156 µg/mL | 0.07
S. pneumoniae D39V [3], first compound 0.125 µg/mL, partner 0.325 µg/mL | 0.944
S. pneumoniae D39V [3], first compound 0.125 µg/mL, partner 0.65 µg/mL | 0.895
S. pneumoniae D39V [3], first compound 0.125 µg/mL, partner 1.3 µg/mL | 0.945
S. pneumoniae D39V [3], first compound 0.125 µg/mL, partner 2.6 µg/mL | 0.856
S. pneumoniae D39V [3], first compound 0.25 µg/mL, partner 0.65 µg/mL | 0.795
S. pneumoniae D39V [3], first compound 0.25 µg/mL, partner 1.3 µg/mL | 0.83
S. pneumoniae D39V [3], first compound 0.25 µg/mL, partner 2.6 µg/mL | 0.767
S. pneumoniae D39V [3], first compound 0.5 µg/mL, partner 2.6 µg/mL | 0.588

fitness, one replicate
Conditions | first compound 0.0098 µg/mL | first compound 0.0195 µg/mL | first compound 0.039 µg/mL | first compound 0.25 µg/mL
B. subtilis 168 [1], partner 0.125 µg/mL | ≥ 1 | 0.964 | 0.709 | –
B. subtilis 168 [1], partner 0.25 µg/mL | 0.868 | 0.849 | 0.335 | –
B. subtilis 168 [1], partner 0.5 µg/mL | 0.901 | 0.828 | 0.313 | –
S. pneumoniae D39V [3], partner 0.325 µg/mL | – | – | – | 0.834

Conditions | Bliss interaction score
B. subtilis 168 [4] | -0.0691
S. aureus DSM 20231 | 0.0365
S. aureus Newman [5] | -0.0448
S. pneumoniae D39V [6] | -0.0751
